Measured values published in PubChem BioAssay (NCI).
Values joined by “and” are separate entries in the source; they are usually repeats but may differ in a detail not shown here. Equal entries are not always repeated.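 Tested at 5 concentrations; 48 h exposure; 96-well plates; endpoints linearly interpolated, else capped at highest concentration. Abbreviation: GI50, concentration required for 50% inhibition of growth. TGI denotes the concentration required for complete inhibition of growth.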

What was measured:
Test in all cases: NCI tumour cell line growth inhibition, 48 h
[1] = test system: 786-0 renal
[2] = test system: A498 renal
[3] = test system: A549 NSCLC
[4] = test system: ACHN renal
[5] = test system: CAKI-1 renal
[6] = test system: CCRF-CEM leukemia
[7] = test system: COLO 205 colon
[8] = test system: DLD-1 colon
[9] = test system: DMS 114 small cell lung
[10] = test system: DMS 273 small cell lung
[11] = test system: EKVX NSCLC
[12] = test system: HCC-2998 colon
[13] = test system: HCT-116 colon
[14] = test system: HCT-15 colon
[15] = test system: HL-60(TB) leukemia
[16] = test system: HOP-18 NSCLC
[17] = test system: HOP-62 NSCLC
[18] = test system: HOP-92 NSCLC
[19] = test system: HT29 colon
[20] = test system: IGROV1 ovarian
[21] = test system: K-562 leukemia
[22] = test system: KM12 colon
[23] = test system: KM20L2 colon
[24] = test system: LOX IMVI melanoma
[25] = test system: LXFL 529 NSCLC
[26] = test system: M19-MEL melanoma
[27] = test system: MALME-3M melanoma
[28] = test system: MCF7 breast
[29] = test system: MOLT-4 leukemia
[30] = test system: NCI-H226 lung
[31] = test system: NCI-H23 lung
[32] = test system: NCI-H460 lung
[33] = test system: NCI-H522 lung
[34] = test system: NCI/ADR-RES ovarian
[35] = test system: OVCAR-3 ovarian
[36] = test system: OVCAR-4 ovarian
[37] = test system: OVCAR-5 ovarian
[38] = test system: OVCAR-8 ovarian
[39] = test system: P388 leukemia
[40] = test system: P388/ADR leukemia
[41] = test system: RPMI-8226 leukemia
[42] = test system: RXF 393 renal
[43] = test system: SF-268 CNS
[44] = test system: SF-295 CNS
[45] = test system: SF-539 CNS
[46] = test system: SK-MEL-2 melanoma
[47] = test system: SK-MEL-28 melanoma
[48] = test system: SK-MEL-5 melanoma
[49] = test system: SK-OV-3 ovarian
[50] = test system: SN12C renal
[51] = test system: SN12K1 renal
[52] = test system: SNB-19 CNS
[53] = test system: SNB-75 CNS
[54] = test system: SNB-78 CNS
[55] = test system: SR leukemia
[56] = test system: SW-620 colon
[57] = test system: TK-10 renal
[58] = test system: U251 CNS
[59] = test system: UACC-257 melanoma
[60] = test system: UACC-62 melanoma
[61] = test system: UO-31 renal
[62] = test system: XF 498 CNS

SMILES: COc1cccc2c1C(=O)c1c(O)c3c(c(O)c1C2=O)C[C@@](O)(C(C)O)C[C@@H]3OC1CC(N)C(O)C(C)O1 (some centres not stated)
- TGI [1]: 4.11 µM
- GI50 [2]: 0.776 µM
- TGI [2]: 8.09 µM and 4.62 µM
- GI50 [3]: 1.11 µM
- TGI [3]: 6.02 µM and 29 µM
- TGI [4]: 8.18 µM
- TGI [5]: 3.16 µM and 3.53 µM
- GI50 [6]: 0.254 µM
- TGI [6]: 1.33 µM
- GI50 [7]: 0.894 µM
- TGI [7]: 4.95 µM and 10.5 µM
- GI50 [8]: 6.11 µM
- TGI [8]: > 100 µM
- GI50 [9]: 0.255 µM
- TGI [9]: 1.48 µM and 1.14 µM
- TGI [10]: 7.24 µM and 6.65 µM
- GI50 [11]: 1.73 µM
- TGI [11]: 4.91 µM and 9.53 µM
- GI50 [12]: 2.26 µM
- TGI [12]: 5.26 µM and 7.66 µM
- GI50 [13]: 1.38 µM
- TGI [13]: 4.17 µM and 17.8 µM
- GI50 [14]: 12.1 µM
- TGI [14]: > 100 µM
- TGI [15]: 1.13 µM and 1.29 µM
- GI50 [16]: 4.96 µM and 1.13 µM
- TGI [16]: 9.5 µM and 7.49 µM
- TGI [17]: 4.3 µM and 4.42 µM
- GI50 [18]: 0.231 µM
- TGI [18]: 3.37 µM and 2.11 µM
- GI50 [19]: 2.78 µM
- TGI [19]: 36.6 µM
- TGI [20]: 9.22 µM and 18.4 µM
- GI50 [21]: 2.21 µM
- TGI [21]: 8.19 µM and 26.5 µM
- GI50 [22]: 2.75 µM
- TGI [22]: 9.34 µM and 14.3 µM
- GI50 [23]: 4.52 µM
- TGI [23]: 42.9 µM
- GI50 [24]: 1.29 µM
- TGI [24]: 4.13 µM and 3.11 µM
- TGI [25]: 7.62 µM
- TGI [26]: 3.32 µM and 4.06 µM
- GI50 [27]: 0.392 µM
- TGI [27]: 1.72 µM and 1.93 µM
- TGI [28]: 42.5 µM
- GI50 [29]: 0.0811 µM
- GI50 [30]: 0.808 µM
- TGI [30]: 2.39 µM and 3.11 µM
- GI50 [31]: 1.27 µM
- TGI [31]: 2.44 µM and 4.93 µM
- TGI [32]: 2.29 µM and 6.95 µM
- GI50 [33]: 0.228 µM
- TGI [33]: 2.34 µM and 1.82 µM
- TGI [34]: > 100 µM
- TGI [35]: 7.29 µM and 8.79 µM
- GI50 [36]: 13.4 µM
- TGI [36]: 35.2 µM
- GI50 [37]: 3.69 µM
- TGI [37]: 9.41 µM and 19.7 µM
- GI50 [38]: 2.39 µM
- TGI [38]: 5.43 µM and > 52.5 µM
- TGI [39]: 1.69 µM
- TGI [40]: > 100 µM
- GI50 [41]: 0.289 µM and 0.502 µM
- TGI [41]: 2.53 µM and 13 µM
- TGI [42]: 5.13 µM and 6.06 µM
- TGI [43]: 5.52 µM and 6.43 µM
- TGI [44]: 6.29 µM and 7.17 µM
- GI50 [45]: 0.665 µM
- TGI [45]: 4.77 µM and 3.63 µM
- GI50 [46]: 1.59 µM
- TGI [46]: 3.5 µM and 3.45 µM
- GI50 [47]: 1.93 µM
- TGI [47]: 4.05 µM and 7.36 µM
- TGI [48]: 2.49 µM and 2.53 µM
- TGI [49]: 8.2 µM and 18.6 µM
- GI50 [50]: 1.49 µM
- TGI [50]: 6.58 µM and 7.62 µM
- TGI [51]: 2.4 µM
- GI50 [52]: 0.392 µM
- TGI [52]: 7.81 µM and 5.57 µM
- GI50 [53]: 1.71 µM and 1.05 µM
- TGI [53]: 6.25 µM and 4.31 µM
- TGI [54]: 7.32 µM and 8.53 µM
- TGI [55]: 0.659 µM
- GI50 [56]: 0.881 µM
- TGI [56]: 8.28 µM and 21.4 µM
- TGI [57]: 8.11 µM
- GI50 [58]: 0.705 µM
- TGI [58]: 7.87 µM and 3.44 µM
- GI50 [59]: 2.41 µM
- TGI [59]: 4.2 µM and 9.17 µM
- TGI [60]: 3.01 µM and 3.29 µM
- TGI [61]: 97.8 µM
- GI50 [62]: 0.221 µM
- TGI [62]: 2.87 µM and 1.86 µM
